In one test the test system is tobacco leaf disks. The test can be described thus: Callus growth from tobacco leaf disks on glyphosate. The format is cell-based, N. tabacum. To be noted: for callus tissue formation: 0.5 mM glyphosate. From the text:
Leaf disks were excised from tobacco plants (N. tabacum) and treated as described above with A. tumefaciens cells containing pMON546 (or pMON505, for control cells) and helper plasmid pGV3111-SE.

The subject of the next test is tobacco leaf fragments. The test can be described thus: Tobacco leaf callus assay on glyphosate. It counts as cell-based, tobacco (Samsun variety). To be noted: 0.5 mM glyphosate, 10 days. The method, then: Transformed tobacco plants (Samsun variety) were produced and grown by the method described in Example 4, substituting transformed tobacco leaf disks for transformed petunia leaf disks.
Tobacco plants were tested for glyphosate resistance using the method described for tomato plants in Example 5. Tobacco leaf fragments from plants containing vector alone (pMON200) or the pMON546 chimeric EPSPS gene were incubated on callus medium containing 0.5 mM glyphosate.

For test [1], the system named is leaf tissue from transgenic shoots of B. napus. The test can be described thus: Oil seed rape leaf tissue tolerance test on medium with glyphosate. The format is cell-based, Brassica napus. Conditions: 0.5 mM glyphosate. The method, then: The four terminal intervals from B. napus plants (growth chamber grown in soil) are surface sterilized in sodium hypochlorite and cut into 5 mm sections. The upper surface of each piece is inoculated with an overnight liquid culture of A. tumefaciens containing the above described transformation vector and helper plasmid pTiT37-SE and incubated for 2 to 3 days on nurse culture plates containing 1/10 MS medium with 1 mg/l BA. The explants are then transferred to MS medium containing 1 mg/l BA, 500 mg/l carbenicillin and 100 mg/l kanamycin. After 3 to 6 weeks, leaf tissue from transgenic shoots that have developed is transferred to the same medium but with 0.5 mM glyphosate instead of the kanamycin to test for tolerance.
Control tissue is prepared using A. tumefaciens cells containing helper plasmid pTiT37-SE and vector pMON200.

A further test has as its system E. coli 11303 SM-1. In words: Growth of E. coli culture in glyphosate-containing growth medium. Conditions: mutant E. coli 11303 SM-1, glyphosate 10 mM or higher in growth medium. It counts as cell-based. On the procedure: Cells of E. coli ATCC 11303 were transferred to medium A and incubated at 37° C.
(§1) This mutant bacterium was designated E. coli 11303 SM-1. The aroA gene encoding EPSPS from this mutant bacterium was isolated as follows.

The subject of another test is sunflower plants. The test can be described thus: Sunflower plants sprayed with glyphosate. The format is in vivo.
A further test concerns the target EPSPS (Escherichia coli, UniProt P0A6D3). It counts as biochemical, E. coli.
Description: as §1
Isolation of aroA gene encoding EPSPS from E. coli 11303 SM-1: The DNA from this bacterium was isolated (Marmur, J. (1961) J. Mol. Biol. 3:208-218). […] This fragment was cloned into the vector pKC7 (Rao, R. N. & Rogers, S. G. (1979), Gene, F. Jul. 7, 1982) and the resulting plasmid was used for trans-formation of E. coli. […] This clone was designated pMON9538. […] This clone was designated pMON9540. […] The E. coli mutant EPSPS gene was incorporated into plant transformation vector with and without a chloroplast transit peptide in the following manner.

In another test the test system is cotton tumor tissue. The test can be described thus: Cotton tumor tissue growth on medium containing glyphosate. Conditions: 0.5 mM glyphosate. The format is cell-based. On the procedure: A plant transformation vector similar to pMON546 is prepared following the general procedure outlined in Example 1 except that the CTP/EPSPS coding sequence is obtained from cotton. Seeds of cotton (cultivator Delta Pine 50) are surface sterilized using sodium hypochlorite and germinated in vitro on a basal medium in the dark. After 2 weeks hypocotyls and cotyledons are cut into pieces and innoculated with a tumorous strain of A. tumefaciens containing the above described transformation vector and helper plasmid pGV3111. After 3 days coculture on MS basal medium, the explants are transferred to the same medium with 500 mg/l carbenicillin to kill the bacteria. After 2 to 4 weeks, tumor tissue is transferred to the same medium containing 0.5 mM glyphosate.
Control tissue was produced using tumorous A. tumefaciens cells containing the helper plasmid pGV3111 and pMON200.

The test system of a further test is flax callus. The test can be described thus: Flax callus resistance to glyphosate. It counts as cell-based. Conditions: glyphosate between 5.0 and 20.0 mM. The method, then:
Flax seeds are surface-sterilized with 70% ethanol, 25% Chlorox and rinsed with sterile distilled water. The seeds are placed on solid MS medium and allowed to germinate in the light for 5-7 days. The hypocotyls are removed aseptically and inoculated with A. tumefaciens cells containing the above-described transformation vector and helper plasmid pTiB6S3-SE or pTiT37-SE and permitted to co-culture for 2 days on MS medium containing 1 mg/l benzylaminopurine, 0.02 mg/l naphthalene acetic acid and 4% sucrose. The hypocotyls are then placed on MS medium supplemented with 400 mg/l kanamycin and 500 mg/l carbenicillin.
Control tissue is prepared using A. tumefaciens cells containing helper plasmid pTiB6S3-SE or pTiT37-SE and vector pMON200.

Another test relates to petunia leaf disks. The test can be described thus: Callus growth from petunia leaf disks on MS media with glyphosate. It counts as cell-based. The method, then:
Leaf disks with diameters of 6 mm (1/4 inch) were taken from surface-sterilized petunia leaves. They were cultivated on MS104 agar medium for 2 days to promote partial cell wall formation at the wound surfaces. They were then submerged in a culture of A. tumefaciens cells containing both pMON546 and GV3111-SE which had been grown overnight in Luria broth at 28° C., and shaken gently. The cells were removed from the bacterial suspension, blotted dry, and incubated upside down on filter paper placed over "nurse" cultures of tobacco cells, as described in Horsch 1981. Afer 2 or 3 days, the disks were transferred to petri dishes containing MS media with 500 μg/ml carbenicillin and 0, 0.1, 0.25, or 0.5 mM glyphosate (sodium salt), with no nurse cultures.
Control tissue was created using A. tumefaciens cells containing the helper plasmid pGV3111-SE and a different plant transformation vector, pMON505, which contained a T-DNA region with a NOS/NPTII/NOS kanamycin resistance gene and a NOS selectable marker gene identical to pMON546, but without the CaMV/EPSPS gene.
Within 10 days after transfer to the media containing glyphosate, actively growing callus tissue appeared on the periphery of all disks on the control plate containing no glyphosate. […] This confirms that the CaMV/EPSPS gene conferred glyphosate resistance upon the transformed cells.

The structures appear in SMILES notation.

EPSPS, sequence (P0A6D3 whole entry): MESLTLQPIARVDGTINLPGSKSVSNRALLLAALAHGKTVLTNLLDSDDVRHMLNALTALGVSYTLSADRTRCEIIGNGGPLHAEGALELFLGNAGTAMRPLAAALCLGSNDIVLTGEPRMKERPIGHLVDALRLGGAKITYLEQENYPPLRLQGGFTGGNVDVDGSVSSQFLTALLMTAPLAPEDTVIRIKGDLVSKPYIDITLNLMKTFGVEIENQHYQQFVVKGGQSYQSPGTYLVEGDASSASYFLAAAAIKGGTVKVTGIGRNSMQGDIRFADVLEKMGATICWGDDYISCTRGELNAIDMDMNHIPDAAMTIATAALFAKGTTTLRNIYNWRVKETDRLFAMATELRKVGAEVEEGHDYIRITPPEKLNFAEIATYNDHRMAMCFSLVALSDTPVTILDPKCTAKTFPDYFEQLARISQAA

As for `O=C(O)CNCP(=O)(O)O` [glyphosate, N-phosphonomethylglycine], the callus tissue formation is “created substantial amounts of callus tissue” with tobacco leaf disks (cells transformed with CaMV/EPSPS gene (pMON546)) and “did not create any detectable callus tissue” with tobacco leaf disks (control cells without the gene (pMON505)). The “glyphosate resistance of transformed tobacco cells” value in the test with tobacco leaf disks (pMON542, E. coli mutant EPSPS construct with CTP) is on record as “resulted in glyphosate resistance”; in the test on tobacco leaf disks (pMON8078, E. coli mutant EPSPS construct without CTP), “failed to confer glyphosate resistance”. In addition, the “callus growth from leaves” value with tobacco leaf fragments (control tobacco leaves (pMON200 vector alone)) was “completely inhibited and showed no signs of callus growth”. Besides, the “glyphosate resistance of leaves” value with tobacco leaf fragments (leaves from plants transformed with chimeric petunia EPSPS gene (pMON546)) is given as “confers glyphosate resistance to tobacco plants”. Further, the tissue growth result in [1] (transformed (pMON200) and non-transformed controls) is “are inhibited”; in test [1] (transgenic tissue that expresses EPSPS) it was “are able to grow in the presence of glyphosate”; in the test on cotton tumor tissue (pMON200 transformed tissue (control) and non-transformed tissue), “is inhibited”; with cotton tumor tissue (tissue transformed with cotton CTP/EPSPS vector), “demonstrates glyphosate resistance by continuing growth”. Further, the growth of culture result in the test with E. coli 11303 SM-1 was “could grow rapidly”. Besides, the “plant tolerance to spray” value in the test with sunflower plants (transformed sunflower plants) is reported as “demonstrate tolerance to glyphosate”. The “plant response to spray” value in the test on sunflower plants (wild type sunflower plants) is reported as “kill wild type plants”. At EPSPS (EPSPS of mutant cells (E. coli 11303 SM-1) compared with wild type E. coli), the “glyphosate sensitivity of EPSPS” value is listed as “significantly different from that of wild type”. Besides, at EPSPS (EPSPS produced by hybrid K-12/11303 SM-1 aroA gene (pMON9540)), the “glyphosate tolerance of EPSPS” value is reported as “retained its glyphosate tolerance”. In addition, the tissue response result in the test with flax callus (control tissue (pMON200)) was “bleaches and dies”. Also, the callus resistance in the test on flax callus (selected callus transformed with EPSPS vector) is listed as “demonstrates resistance to glyphosate”. The “callus growth, control disks versus transformed tissue” value in the test on petunia leaf disks (0.1 mM glyphosate (sodium salt), within 10 days, control pMON505, transformed pMON546) is “little detectable difference between the control disks and the transformed tissue”. Also, the callus growth is on record as “very little growth of callus from control disks” with petunia leaf disks (control disks (pMON505), 0.25 mM glyphosate (sodium salt)); “no callus growth from the control disks” with petunia leaf disks (control disks (pMON505), 0.5 mM glyphosate (sodium salt)); “a significant number of calli grew from the transformed disks” with petunia leaf disks (transformed disks (pMON546, CaMV/EPSPS), 0.5 mM glyphosate (sodium salt)); “substantial growth of transformed tissue occurred” in the test on petunia leaf disks (transformed tissue (pMON546, CaMV/EPSPS), 0.25 mM glyphosate (sodium salt)).

The values above are taken from patent US5188642A, “Glyphosate-resistant plants” (priority 1990, dated 1993).
